Reference: ChEMBL document CHEMBL1154382, “Preliminary SAR analysis of novel antiproliferative N(6),5'-bis-ureidoadenosine derivatives” (2009)

Experiments:
Type in all cases: functional
Details in all cases: values are per cent of control
NCI-H522 = assay: Antiproliferative activity against human NCI-H522 cells at 10 uM assessed as cell growth inhibition relative to control
KM12 = assay: Antiproliferative activity against human KM12 cells at 10 uM assessed as cell growth inhibition relative to control
M14 = assay: Antiproliferative activity against human M14 cells at 10 uM assessed as cell growth inhibition relative to control
HCC 2998 = assay: Antiproliferative activity against human HCC2998 cells at 10 uM assessed as cell growth inhibition relative to control
SNB-19 = assay: Antiproliferative activity against human SNB19 cells at 10 uM assessed as cell growth inhibition relative to control
HT-29 = assay: Antiproliferative activity against human HT-29 cells at 10 uM assessed as cell growth inhibition relative to control
SK-MEL-28 = assay: Antiproliferative activity against human SK-MEL-28 cells at 10 uM assessed as cell growth inhibition relative to control
TK-10 = assay: Antiproliferative activity against human TK10 cells at 10 uM assessed as cell growth inhibition relative to control
SF-539 = assay: Antiproliferative activity against human SF539 cells at 10 uM assessed as cell growth inhibition relative to control
COLO 205 = assay: Antiproliferative activity against human COLO205 cells at 10 uM assessed as cell growth inhibition relative to control
IGROV-1 = assay: Antiproliferative activity against human IGROV1 cells at 10 uM assessed as cell growth inhibition relative to control
PC-3 = assay: Antiproliferative activity against human PC3 cells at 10 uM assessed as cell growth inhibition relative to control
MDA-MB-468 = assay: Antiproliferative activity against human MDA-MB-468 cells at 10 uM assessed as cell growth inhibition relative to control
HOP-92 = assay: Antiproliferative activity against human HOP92 cells at 10 uM assessed as cell growth inhibition relative to control
SK-MEL-5 = assay: Antiproliferative activity against human SK-MEL-5 cells at 10 uM assessed as cell growth inhibition relative to control
A498 = assay: Antiproliferative activity against human A498 cells at 10 uM assessed as cell growth inhibition relative to control
NCI-H23 = assay: Antiproliferative activity against human NCI-H23 cells at 10 uM assessed as cell growth inhibition relative to control
T47D = assay: Antiproliferative activity against human T47D cells at 10 uM assessed as cell growth inhibition relative to control
MOLT-4 = assay: Antiproliferative activity against human MOLT4 cells at 10 uM assessed as cell growth inhibition relative to control
UO-31 = assay: Antiproliferative activity against human UO31 cells at 10 uM assessed as cell growth inhibition relative to control
ACHN = assay: Antiproliferative activity against human ACHN cells at 10 uM assessed as cell growth inhibition relative to control
A549 = assay: Antiproliferative activity against human A549 cells at 10 uM assessed as cell growth inhibition relative to control
OVCAR-3 = assay: Antiproliferative activity against human OVCAR-3 cells at 10 uM assessed as cell growth inhibition relative to control
SW-620 = assay: Antiproliferative activity against human SW620 cells at 10 uM assessed as cell growth inhibition relative to control
NCI-H460 = assay: Antiproliferative activity against human NCI-H460 cells at 10 uM assessed as cell growth inhibition relative to control
OVCAR-8 = assay: Antiproliferative activity against human OVCAR8 cells at 10 uM assessed as cell growth inhibition relative to control
K562 = assay: Antiproliferative activity against human K562 cells at 10 uM assessed as cell growth inhibition relative to control
MCF7 = assay: Antiproliferative activity against human MCF7 cells at 10 uM assessed as cell growth inhibition relative to control
RXF 393 = assay: Antiproliferative activity against human RXF393 cells at 10 uM assessed as cell growth inhibition relative to control
SF-295 = assay: Antiproliferative activity against human SF295 cells at 10 uM assessed as cell growth inhibition relative to control
Malme-3M = assay: Antiproliferative activity against human MALME-3M cells at 10 uM assessed as cell growth inhibition relative to control
HOP-62 = assay: Antiproliferative activity against human HOP62 cells at 10 uM assessed as cell growth inhibition relative to control
NCI-H226 = assay: Antiproliferative activity against human NCI-H226 cells at 10 uM assessed as cell growth inhibition relative to control
SNB-75 = assay: Antiproliferative activity against human SNB75 cells at 10 uM assessed as cell growth inhibition relative to control
EKVX = assay: Antiproliferative activity against human EKVX cells at 10 uM assessed as cell growth inhibition relative to control
786-0 = assay: Antiproliferative activity against human 786-0 cells at 10 uM assessed as cell growth inhibition relative to control
HL-60(TB) = assay: Antiproliferative activity against human HL-60(TB) cells at 10 uM assessed as cell growth inhibition relative to control
NCI-H322M = assay: Antiproliferative activity against human NCI-H322M cells at 10 uM assessed as cell growth inhibition relative to control
CCRF-CEM = assay: Antiproliferative activity against human CCRF-CEM cells at 10 uM assessed as cell growth inhibition relative to control
SK-MEL-2 = assay: Antiproliferative activity against human SK-MEL-2 cells at 10 uM assessed as cell growth inhibition relative to control
BT-549 = assay: Antiproliferative activity against human BT549 cells at 10 uM assessed as cell growth inhibition relative to control
MDA-MB-231 = assay: Antiproliferative activity against human MDA-MB-231 cells at 10 uM assessed as cell growth inhibition relative to control
UACC-257 = assay: Antiproliferative activity against human UACC257 cells at 10 uM assessed as cell growth inhibition relative to control
UACC-62 = assay: Antiproliferative activity against human UACC62 cells at 10 uM assessed as cell growth inhibition relative to control
SN12C = assay: Antiproliferative activity against human SN12C cells at 10 uM assessed as cell growth inhibition relative to control
OVCAR-4 = assay: Antiproliferative activity against human OVCAR4 cells at 10 uM assessed as cell growth inhibition relative to control
HCT-15 = assay: Antiproliferative activity against human HCT15 cells at 10 uM assessed as cell growth inhibition relative to control
SF-268 = assay: Antiproliferative activity against human SF268 cells at 10 uM assessed as cell growth inhibition relative to control
DU-145 = assay: Antiproliferative activity against human DU145 cells at 10 uM assessed as cell growth inhibition relative to control
HCT-116 = assay: Antiproliferative activity against human HCT116 cells at 10 uM assessed as cell growth inhibition relative to control
U-251 = assay: Antiproliferative activity against human U251 cells at 10 uM assessed as cell growth inhibition relative to control
CAKI-1 = assay: Antiproliferative activity against human Caki1 cells at 10 uM assessed as cell growth inhibition relative to control
SK-OV-3 = assay: Antiproliferative activity against human SKOV3 cells at 10 uM assessed as cell growth inhibition relative to control
[1] = Antiproliferative activity against human […] cells at 10 uM assessed as cell growth inhibition relative to control
OVCAR-5 = assay: Antiproliferative activity against human OVCAR5 cells at 10 uM assessed as cell growth inhibition relative to control
[2] = Antiproliferative activity against human Hs 578T cells at 10 uM assessed as cell growth inhibition relative to control
LOX IMVI = assay: Antiproliferative activity against human LOXIMVI cells at 10 uM assessed as cell growth inhibition relative to control

## CCOC(=O)C[C@H]1[C@@H](O[Si](C)(C)C(C)(C)C)[C@H](n2cnc3c(N)ncnc32)O[C@@H]1COC(=O)NC
NCI-H522
  growth, % of control at 10 µM: 75%
KM12
  growth, % of control at 10 µM: 102%
M14
  growth, % of control at 10 µM: 100%
HCC 2998
  growth, % of control at 10 µM: 55%
SNB-19
  growth, % of control at 10 µM: 92%
HT-29
  growth, % of control at 10 µM: 100%
SK-MEL-28
  growth, % of control at 10 µM: 106%
TK-10
  growth, % of control at 10 µM: 110%
SF-539
  growth, % of control at 10 µM: 89%
COLO 205
  growth, % of control at 10 µM: 104%
IGROV-1
  growth, % of control at 10 µM: 118%
PC-3
  growth, % of control at 10 µM: 84%
MDA-MB-468
  growth, % of control at 10 µM: 77%
HOP-92
  growth, % of control at 10 µM: 95%
SK-MEL-5
  growth, % of control at 10 µM: 68%
A498
  growth, % of control at 10 µM: 98%
NCI-H23
  growth, % of control at 10 µM: 105%
T47D
  growth, % of control at 10 µM: 84%
MOLT-4
  growth, % of control at 10 µM: 55%
UO-31
  growth, % of control at 10 µM: 95%
ACHN
  growth, % of control at 10 µM: 89%
A549
  growth, % of control at 10 µM: 92%
OVCAR-3
  growth, % of control at 10 µM: 98%
SW-620
  growth, % of control at 10 µM: 104%
NCI-H460
  growth, % of control at 10 µM: 106%
OVCAR-8
  growth, % of control at 10 µM: 98%
K562
  growth, % of control at 10 µM: 86%
MCF7
  growth, % of control at 10 µM: 98%
RXF 393
  growth, % of control at 10 µM: 78%
SF-295
  growth, % of control at 10 µM: 92%
Malme-3M
  growth, % of control at 10 µM: 96%
HOP-62
  growth, % of control at 10 µM: 74%
NCI-H226
  growth, % of control at 10 µM: 79%
SNB-75
  growth, % of control at 10 µM: 83%
EKVX
  growth, % of control at 10 µM: 83%
786-0
  growth, % of control at 10 µM: 87%
HL-60(TB)
  growth, % of control at 10 µM: 80%
NCI-H322M
  growth, % of control at 10 µM: 99%
CCRF-CEM
  growth, % of control at 10 µM: 98%
SK-MEL-2
  growth, % of control at 10 µM: 111%
BT-549
  growth, % of control at 10 µM: 74%
MDA-MB-231
  growth, % of control at 10 µM: 85%
UACC-257
  growth, % of control at 10 µM: 94%
UACC-62
  growth, % of control at 10 µM: 77%
SN12C
  growth, % of control at 10 µM: 96%
OVCAR-4
  growth, % of control at 10 µM: 78%
HCT-15
  growth, % of control at 10 µM: 87%
SF-268
  growth, % of control at 10 µM: 97%
DU-145
  growth, % of control at 10 µM: 100%
HCT-116
  growth, % of control at 10 µM: 81%
U-251
  growth, % of control at 10 µM: 86%
CAKI-1
  growth, % of control at 10 µM: 79%
SK-OV-3
  growth, % of control at 10 µM: 94%
[1]
  growth, % of control at 10 µM: 79%
OVCAR-5
  growth, % of control at 10 µM: 115%
[2]
  growth, % of control at 10 µM: 93%
LOX IMVI
  growth, % of control at 10 µM: 88%
